Measured values taken from patent US20070071762A1, “COMPREHENSIVE DIAGNOSTIC TESTING PROCEDURES FOR PERSONALIZED ANTICANCER CHEMOTHERAPY (PAC)” (CCC Diagnostics, LLC, priority 2005, published 2007).
≈ marks a conversion by molar mass, not a printed value. Where two headings read alike, the source gives them in different places.

Key:
MCF-7 cells [1] = assay: WST-8 growth inhibition of cultured breast cancer cells; format: cell-based, human; settings: for IC50: Homo sapiens, MCF7, 5-FU, doses ranged from 5-300 μg/ml
Description: (§1) In another example, the expression of thymidylate synthase (TS) was correlated with the response of breast cancer cells to the chemotherapeutic drug 5-fluorouracil (5-FU). TS is a key enzyme in DNA biosynthesis and has been postulated to play a major role in predicting the response to 5-FU based chemotherapy. Experiments were conducted to examine this relationship. […] Doses ranged from 5-300 μg/ml.

HCC 38 cells = assay: as above; format: cell-based, human; settings: for IC50: Homo sapiens
Description: as §1

HCC 2218 cells = assay: as above; format: cell-based, human; settings: for IC50: Homo sapiens
Description: as §1

SKBR-3 cells [2] = assay: as above; format: cell-based, human; settings: for IC50: Homo sapiens, SK-BR-3, 5-FU, doses ranged from 5-300 μg/ml
Description: as §1

T47D cells = assay: as above; format: cell-based, human; settings: for IC50: Homo sapiens
Description: as §1

HCC 202 cells = assay: as above; format: cell-based, human; settings: for IC50: Homo sapiens
Description: as §1

MCF-7 cells [3] = assay: as above; format: cell-based; settings: Homo sapiens, 72 hours post treatment
SKBR-3 cells [4] = assay: as above; format: cell-based; settings: Homo sapiens, SK-BR-3, 72 hours post treatment
MDA-MB231 cells = settings: MDA-MB 231 cells

Question: O=c1[nH]cc(F)c(=O)[nH]1 [5 Fluorouracil, 5-fluorouracil] was tested. Which “biological response to drug treatment (in words)” value (shortened to “biological response”) (MCF-7 cells [1]) did it give?
Answer: responding to lower doses

Question: What about the IC50 (MCF-7 cells [1]; read-out: IC50-1 FU) of the same molecule?
Answer: 10 µg/mL (≈ 76.9 µM)

Question: And the IC50 (MCF-7 cells [1]; read-out: IC50-2 FU)?
Answer: 15.2 µg/mL (≈ 117 µM)

Question: And the “biological response” value (HCC 38 cells; HCC 38 cells)?
Answer: responded only to higher doses

Question: And the IC50 (HCC 38 cells; HCC38, 5-FU, HCC 38 cells, doses ranged from 5-300 μg/ml, read-out: IC50-1 FU)?
Answer: 216 µg/mL (≈ 1660 µM)

Question: And the “biological response” value (HCC 2218 cells; HCC 2218 cells)?
Answer: responded only to higher doses

Question: And the IC50 (HCC 2218 cells; HCC2218, 5-FU, HCC 2218 cells, doses ranged from 5-300 μg/ml, read-out: IC50-1 FU)?
Answer: 246 µg/mL (≈ 1890 µM)

Question: What about the “biological response” value (SKBR-3 cells [2]) of the same molecule?
Answer: responding to lower doses

Question: What about the IC50 (SKBR-3 cells [2]; read-out: IC50-1 FU) of the same molecule?
Answer: 23.3 µg/mL (≈ 179 µM)

Question: And the IC50 (SKBR-3 cells [2]; read-out: IC50-2 FU)?
Answer: 33.7 µg/mL (≈ 259 µM)

Question: What about the “biological response” value (T47D cells) of the same molecule?
Answer: responding to lower doses

Question: And the IC50 (T47D cells; 5-FU, doses ranged from 5-300 μg/ml, read-out: IC50-1 FU)?
Answer: 8.64 µg/mL (≈ 66.4 µM)

Question: And the IC50 (T47D cells; 5-FU, doses ranged from 5-300 μg/ml, read-out: IC50-2 FU)?
Answer: 6.72 µg/mL (≈ 51.7 µM)

Question: And the “biological response” value (HCC 202 cells; HCC 202 cells)?
Answer: responded only to higher doses

Question: What about the IC50 (HCC 202 cells; HCC202, 5-FU, HCC 202 cells, doses ranged from 5-300 μg/ml, read-out: IC50-1 FU) of the same molecule?
Answer: 181 µg/mL (≈ 1390 µM)

Question: What about the IC50 (HCC 202 cells; HCC202, 5-FU, HCC 202 cells, doses ranged from 5-300 μg/ml, read-out: IC50-2 FU) of the same molecule?
Answer: 162 µg/mL (≈ 1250 µM)

Question: For CC(=O)O[C@H]1C(=O)[C@@]2(C)[C@H]([C@H](OC(=O)c3ccccc3)[C@]3(O)C[C@H](OC(=O)[C@H](O)[C@@H](NC(=O)c4ccccc4)c4ccccc4)C(C)=C1C3(C)C)[C@]1(OC(C)=O)CO[C@@H]1C[C@@H]2O [Paclitaxel, paclitaxel], which IC50 (MCF-7 cells [3]; MCF7, Paclitaxel, read-out: IC50-1) is on record?
Answer: 6 µg/mL (≈ 7.03 µM)

Question: What about the IC50 (MCF-7 cells [3]; MCF7, Paclitaxel, read-out: IC50-2) of the same molecule?
Answer: 7.1 µg/mL (≈ 8.31 µM)

Question: And the “biological response” value (MCF-7 cells [1])?
Answer: sensitive

Question: And the “biological response” value (HCC 38 cells; HCC 38 cells)?
Answer: displayed a response to PTX, but did not express an IC50 value

Question: What about the IC50 (HCC 38 cells; HCC38, Paclitaxel, HCC 38 cells, 72 hours post treatment, read-out: IC50-1) of the same molecule?
Answer: > 50 µg/mL

Question: What about the IC50 (HCC 38 cells; HCC38, Paclitaxel, HCC 38 cells, 72 hours post treatment, read-out: IC50-2) of the same molecule?
Answer: > 50 µg/mL

Question: What about the “biological response” value (HCC 2218 cells; HCC 2218 cells) of the same molecule?
Answer: displayed a response to PTX, but did not express an IC50 value

Question: And the IC50 (HCC 2218 cells; Paclitaxel, HCC2218 cells, 72 hours post treatment, read-out: IC50-1)?
Answer: > 50 µg/mL

Question: And the IC50 (HCC 2218 cells; Paclitaxel, HCC2218 cells, 72 hours post treatment, read-out: IC50-2)?
Answer: > 50 µg/mL

Question: And the “biological response” value (SKBR-3 cells [2])?
Answer: sensitive

Question: What about the “biological response” value (T47D cells) of the same molecule?
Answer: sensitive

Question: What about the IC50 (T47D cells; Paclitaxel, 72 hours post treatment, read-out: IC50-1) of the same molecule?
Answer: 3 µg/mL (≈ 3.51 µM)

Question: And the IC50 (T47D cells; Paclitaxel, 72 hours post treatment, read-out: IC50-2)?
Answer: 3.6 µg/mL (≈ 4.22 µM)

Question: And the “biological response” value (HCC 202 cells; HCC 202 cells)?
Answer: resistant

Question: What about the IC50 (HCC 202 cells; HCC202, Paclitaxel, HCC 202 cells, 72 hours post treatment, read-out: IC50-1) of the same molecule?
Answer: > 50 µg/mL

Question: What about the IC50 (HCC 202 cells; HCC202, Paclitaxel, HCC 202 cells, 72 hours post treatment, read-out: IC50-2) of the same molecule?
Answer: > 50 µg/mL

Question: What about the IC50 (SKBR-3 cells [4]; Paclitaxel, SKBR-3 cells, read-out: IC50-1) of the same molecule?
Answer: 10 µg/mL (≈ 11.7 µM)

Question: And the IC50 (SKBR-3 cells [4]; Paclitaxel, SKBR-3 cells, read-out: IC50-2)?
Answer: 8.5 µg/mL (≈ 9.95 µM)

Question: With CC(=O)O[C@@]12CO[C@@H]1C[C@H](O)[C@@]1(C)C(=O)[C@H](O)C3=C(C)[C@@H](OC(=O)[C@H](O)[C@@H](NC(=O)OC(C)(C)C)c4ccccc4)C[C@@](O)([C@@H](OC(=O)c4ccccc4)[C@H]21)C3(C)C [Docetaxel, docetaxel] as the molecule, how does the IC50 (MCF-7 cells [3]; MCF7, Docetaxel, read-out: IC50-1) read?
Answer: 1 µg/mL (≈ 1.24 µM)

Question: What about the IC50 (MCF-7 cells [3]; MCF7, Docetaxel, read-out: IC50-2) of the same molecule?
Answer: 0.8 µg/mL (≈ 0.99 µM)

Question: And the “biological response” value (MCF-7 cells [1])?
Answer: sensitive

Question: And the “biological response” value (HCC 38 cells; HCC 38 cells)?
Answer: response only to higher doses

Question: What about the IC50 (HCC 38 cells; Docetaxel, HCC38 cells, 72 hours post treatment, read-out: IC50-1) of the same molecule?
Answer: 58 µg/mL (≈ 71.8 µM)

Question: And the IC50 (HCC 38 cells; Docetaxel, HCC38 cells, 72 hours post treatment, read-out: IC50-2)?
Answer: 59.9 µg/mL (≈ 74.1 µM)

Question: And the “biological response” value (HCC 2218 cells; HCC 2218 cells)?
Answer: response only to higher doses

Question: What about the IC50 (HCC 2218 cells; HCC2218, Docetaxel, HCC 2218 cells, 72 hours post treatment, read-out: IC50-1) of the same molecule?
Answer: 25 µg/mL (≈ 30.9 µM)

Question: And the IC50 (HCC 2218 cells; HCC2218, Docetaxel, HCC 2218 cells, 72 hours post treatment, read-out: IC50-2)?
Answer: 18 µg/mL (≈ 22.3 µM)

Question: What about the “biological response” value (SKBR-3 cells [2]) of the same molecule?
Answer: sensitive

Question: What about the “biological response” value (T47D cells) of the same molecule?
Answer: sensitive

Question: And the IC50 (T47D cells; Docetaxel, 72 hours post treatment, read-out: IC50-1)?
Answer: 5.5 µg/mL (≈ 6.81 µM)

Question: What about the IC50 (T47D cells; Docetaxel, 72 hours post treatment, read-out: IC50-2) of the same molecule?
Answer: 4.5 µg/mL (≈ 5.57 µM)

Question: And the “biological response” value (HCC 202 cells; HCC 202 cells)?
Answer: resistant

Question: And the IC50 (HCC 202 cells; Docetaxel, HCC202 cells, 72 hours post treatment, read-out: IC50-1)?
Answer: 25.5 µg/mL (≈ 31.6 µM)

Question: What about the IC50 (HCC 202 cells; Docetaxel, HCC202 cells, 72 hours post treatment, read-out: IC50-2) of the same molecule?
Answer: 22 µg/mL (≈ 27.2 µM)

Question: What about the IC50 (SKBR-3 cells [4]; Docetaxel, SKBR3 cells, read-out: IC50-1) of the same molecule?
Answer: 6.6 µg/mL (≈ 8.17 µM)

Question: And the IC50 (SKBR-3 cells [4]; Docetaxel, SKBR3 cells, read-out: IC50-2)?
Answer: 12.5 µg/mL (≈ 15.5 µM)

Question: For CC/C(=C(\c1ccccc1)c1ccc(OCCN(C)C)cc1)c1ccccc1 [Tamoxifen, tamoxifen], which “biological response” value (MCF-7 cells [1]) is on record?
Answer: high sensitivity

Question: And the “biological response” value (SKBR-3 cells [2])?
Answer: much less sensitive response

Question: And the “biological response” value (MDA-MB231 cells)?
Answer: much less sensitive response
